Source: US20240190866A1, “POLYHYDROXYLATED INDOLIZIDINE AND PYRROLIZIDINE DERIVATIVES AND USES THEREOF” (Academia Sinica, priority 2021, published 2024)

Columns and labels:
[1] = system: HepG2 cells; assay: Transwell invasion assay; type: cell-based, human
Protocol: (§1) Chemotaxis experiments with human HepG2Huh7, or PANC-1 cells were assayed by using transwells (Millipore). The cells to be analyzed (5×10^4 cells/well) were seeded in the upper chambers of the 24-well plate in 400 μL serum-free medium. FBS (10%) was used as the chemoattractant with or without different concentrations of the test compound (e.g., ACK900, ACK901, ACK902) in the lower chamber, and the plate was incubated under standard conditions. After incubation for 18 hours, the media in the upper chambers were aspirated and washed with phosphate-buffered saline (PBS) twice. Both non-migrated and migrated cells were fixed with 4% paraformaldehyde (PFA) for 30 minutes at room temperature, stained with 2% crystal violet solution. The non-invading cells were removed from the upper surface of the insert membrane with a cotton swab. The images were taken using an imaging reader (Cytation 5, BioTek, VT, U.S.A.) and analyzed using NIH ImageJ software. Percent in the results represent percent of initial number of cells in the migrating and nonmigrating Cell fractions.

[2] = system: Huh7 cells; assay: Transwell invasion assay; type: cell-based, human
Protocol: as §1

[3] = system: PANC-1 cells; assay: Transwell invasion assay; type: cell-based, human; conditions: PANC-1, transwell
Protocol: as §1

[4] = Serum biochemistry assay in Huh7 xenograft mice; type: in vivo, NOD-SCID mice; conditions: serum, 30 mg/kg i.p., twice a week
Protocol: All blood specimens were collected in tubes and were left at 25° C. for 30 min to clot and centrifuged for 10 min at 1200 g. The concentrations of the following biochemical serum analytes collected were measured with FUJI DRI-CHEM 500i analyzer (FUJIFILM Corp., Tokyo, Japan) using the manufacturer's reagents and according to the manufacturer's instructions: Alanine Aminotransferase ALT), Aspartate Aminotransferase (AST), Blood Urea Nitrogen (BUN), Creatinine (CRE) and Total Bilirubin (TBIL).
HCC xenografts were established in 5-6 weeks old NOD-SCID mice by subcutaneous inoculation of about 5×10^6 Huh7 cells suspended in 50 μL PBS+50 μL, Matrigel (Corning, 394230) in the left and right flanks of each mouse. After one week of inoculation, tumors were palpable and the mice were assigned randomly to 1 of 4 treatment groups. Group 1 (vehicle control group, n=6) mice only received a vehicle solution containing Kolliphor EL (Sigma Aldrich, C5135), 99.9% ethanol and water in a ratio of 1:1:6. Groups 2, 3, 4 and 5 mice were intraperitoneally injected with the test compound (e.g., compound ACK900, ACK901, or ACK902) (30 mg/kg, ip, n=7/group) or sorafenib (30 mg/kg, ip, n=6/group), twice per week for 25 days. The tumor volume was calculated by the formula of a ratioinal ellipsoid: [0.5236×short axis) m1^2×(long axis)m^2], and the tumor volume was measured twice per week. All mice were sacrificed at 27 days after the treatment started. Tumor tissues were isolated, photographed and weighted.
In vivo tumor growth inhibition studies in human Huh7 xenograft rodents were performed in accordance with procedures as described in the “Material and Method” section. Xenograft tumors were generated by implanting Huh7 cells (5×10^6) subcutaneously into the left and right flanks of each NOD-SCID mouse. Starting on the 7th day after the inoculation of Huh7 cells, the mice were injected with ACK900, ACK901, ACK902 or sorafenib intraperitoneally (i.p.) at a dose of 30 mg/kg and twice a week for 34 days.

BUN [4]: 22.37 ± 4.41 mg/dL
CRE [4]: 0.33 ± 0.05 mg/dL
TBIL [4]: 0.55 ± 0.18 mg/dL
SMILES: CCC[C@H]1CC[C@H](c2ccc(NC(=S)NC[C@@H]3[C@@H](O)[C@@H](O)[C@H]4[C@H](O)CCCN43)cc2)CC1 [ACK900]
invasive capability [1]: remarkably decreased
invasive capability [2]: remarkably decreased
invasive capability [3]: remarkably decreased
ALT [4]: 101.57 ± 70.63 U/L
AST [4]: 223.42 ± 157.00 U/L
